Reference: patent US20200131196A1 (Mount Tam Therapeutics, Inc., priority 2017, published 2020)
Read-outs that look alike come from different tables or passages of the source.

What was measured:
Format in all cases: cell-based, human
A388 = assay: OncoPanel cell proliferation assay, A388
Description: (§1) Cells were seeded into 384-well plates and incubated in a humidified atmosphere of 5% CO2 at 37° C. Compounds were added the day following cell seeding. At the same time, a time zero untreated cell plate was generated. After a 3-day incubation period, cells were fixed and stained to allow fluorescence imaging of nuclei. Compounds (1 mM stock solutions) were serially diluted in half-log steps from the highest test concentration ([…]), and assayed over 10 concentrations with a maximum assay concentration of 0.1% DMSO. Automated fluorescence microscopy was carried out using a Molecular Devices ImageXpress Micro XL high-content imager, and images were collected with a 4× objective. 16-bit TIFF images were acquired and analyzed with MetaXpress 5.1.0.41 software.
(§2) Cell proliferation was measured by the fluorescence intensity of an incorporated nuclear dye. The output is referred to as the relative cell count, where the measured nuclear intensity is transformed to percent of control (POC) using the following formula: […]
(§3) Cellular response parameters were calculated using nonlinear regression to a sigmoidal single-site dose response model:
GI50 is the concentration needed to reduce the observed growth by half (midway between the curve maximum and the time zero value). […] In rare instances, values <0 or >10 may be observed. […] Curve-fitting, calculations, and report generation was performed using a custom data reduction engine and MathIQ based software (AIM).

AGS = assay: OncoPanel cell proliferation assay, AGS
Description: as §1, with “Cells were grown in RPMI 1640, 10% FBS, 2 mM L-alanyl-L-glutamine, 1 mM Na pyruvate, or a special medium. Cells” for “Cells”
as §2, §3
(§4) EC50 is the test compound concentration at the curve inflection point or half the effective response (parameter C of the fitted curve solution). GI50 is the concentration needed to reduce the observed growth by half (midway between the curve maximum and the time zero value). “Cell Count Activity Area” is an estimate of the integrated area above the curve (Barretina, et al. The Cancer Cell Line Encyclopedia enables predictive modelling of anticancer drug sensitivity. Nature 483: 603-607). […] In rare instances, values <0 or >10 may be observed. […] Curve-fitting, calculations, and report generation was performed using a custom data reduction engine and MathIQ based software (AIM).

CaOV3 = assay: OncoPanel cell proliferation assay, CaOV3
Description: as §1, with “Cells were grown in RPMI 1640, 10% FBS, 2 mM L-alanyl-L-glutamine, 1 mM Na pyruvate, or a special medium. Cells” for “Cells”
as §2, §3, §4

SK-MEL-28 = assay: OncoPanel cell proliferation assay, SK-MEL-28
Description: as §1, with “Cells were grown in RPMI 1640, 10% FBS, 2 mM L-alanyl-L-glutamine, 1 mM Na pyruvate, or a special medium. Cells” for “Cells”
as §2, §3, §4

MES-SA = assay: OncoPanel cell proliferation assay, MES-SA
Description: as §1, with “Cells were grown in RPMI 1640, 10% FBS, 2 mM L-alanyl-L-glutamine, 1 mM Na pyruvate, or a special medium. Cells” for “Cells”
as §2, §3, §4

RL95-2 = assay: OncoPanel cell proliferation assay, RL95-2
Description: as §1, with “Cells were grown in RPMI 1640, 10% FBS, 2 mM L-alanyl-L-glutamine, 1 mM Na pyruvate, or a special medium. Cells” for “Cells”
as §2, §3, §4

[1] = Homo sapiens, read-out: Cell Count EC50
[2] = Homo sapiens, read-out: Cell Count GI50
[3] = Homo sapiens, read-out: Cell Count IC50

## CO[C@H]1C[C@@H]2CC[C@@H](C)[C@@](O)(O2)C(=O)C(=O)N2CCCC[C@H]2C(=O)O[C@H]([C@H](C)C[C@H]2C[C@H]3C[C@@H]2C[C@@H]3O)CC(=O)[C@H](C)/C=C(\C)[C@@H](O)[C@@H](OC)C(=O)[C@H](C)C[C@H](C)/C=C/C=C/C=C/1C [Formula II, C37-[(1R,2S,4R,5S)-5-hyhroxybicyclo[2.2.1]heptane] rapamycin]
A388
  Cell Count Activity Area: 1.60
A388; 1.00E+00 microM
  Relative cell count (%) Mean: 62.7%
A388; 1.00E-01 microM
  Relative cell count (%) Mean: 65.6%
A388; 1.00E-02 microM
  Relative cell count (%) Mean: 79.8%
A388; 1.00E-03 microM
  Relative cell count (%) Mean: 80.8%
A388; 1.01E-04 microM
  Relative cell count (%) Mean: 95.5%
A388; 3.16E-01 microM
  Relative cell count (%) Mean: 62.3%
A388; 3.17E-02 microM
  Relative cell count (%) Mean: 66.7%
A388; 3.17E-03 microM
  Relative cell count (%) Mean: 79.0%
A388; 3.18E-04 microM
  Relative cell count (%) Mean: 87.7%
A388; 3.18E-05 microM
  Relative cell count (%) Mean: 86.5%
A388; [1]
  EC50: 8.24 nM
A388; [2]
  GI50: > 1000 nM
A388; [3]
  IC50: > 1000 nM
AGS
  Cell Count Activity Area: 5.29
AGS; 1.00E+00 microM
  Relative cell count (%) Mean: 41.7%
AGS; 1.00E-01 microM
  Relative cell count (%) Mean: 44.3%
AGS; 1.00E-02 microM
  Relative cell count (%) Mean: 41.0%
AGS; 1.00E-03 microM
  Relative cell count (%) Mean: 48.7%
AGS; 1.01E-04 microM
  Relative cell count (%) Mean: 87.1%
AGS; 3.16E-01 microM
  Relative cell count (%) Mean: 40.7%
AGS; 3.17E-02 microM
  Relative cell count (%) Mean: 42.8%
AGS; 3.17E-03 microM
  Relative cell count (%) Mean: 51.4%
AGS; 3.18E-04 microM
  Relative cell count (%) Mean: 63.8%
AGS; 3.18E-05 microM
  Relative cell count (%) Mean: 124.5%
AGS; [1]
  EC50: 0.133 nM
AGS; [2]
  GI50: 0.245 nM
AGS; [3]
  IC50: 0.297 nM
CaOV3
  Cell Count Activity Area: 2.53
CaOV3; 1.00E+00 microM
  Relative cell count (%) Mean: 57.7%
CaOV3; 1.00E-01 microM
  Relative cell count (%) Mean: 63.1%
CaOV3; 1.00E-02 microM
  Relative cell count (%) Mean: 73.9%
CaOV3; 1.00E-03 microM
  Relative cell count (%) Mean: 76.4%
CaOV3; 1.01E-04 microM
  Relative cell count (%) Mean: 98.2%
CaOV3; 3.16E-01 microM
  Relative cell count (%) Mean: 60.5%
CaOV3; 3.17E-02 microM
  Relative cell count (%) Mean: 64.6%
CaOV3; 3.17E-03 microM
  Relative cell count (%) Mean: 78.3%
CaOV3; 3.18E-04 microM
  Relative cell count (%) Mean: 76.6%
CaOV3; 3.18E-05 microM
  Relative cell count (%) Mean: 97.5%
CaOV3; Homo sapiens, Caov-3, read-out: Cell Count EC50
  EC50: 1.59 nM
CaOV3; Homo sapiens, Caov-3, read-out: Cell Count GI50
  GI50: 47.7 nM
CaOV3; Homo sapiens, Caov-3, read-out: Cell Count IC50
  IC50: > 1000 nM
SK-MEL-28
  Cell Count Activity Area: 2.68
SK-MEL-28; 1.00E+00 microM
  Relative cell count (%) Mean: 60.6%
SK-MEL-28; 1.00E-01 microM
  Relative cell count (%) Mean: 69.8%
SK-MEL-28; 1.00E-02 microM
  Relative cell count (%) Mean: 84.3%
SK-MEL-28; 1.00E-03 microM
  Relative cell count (%) Mean: 91.6%
SK-MEL-28; 1.01E-04 microM
  Relative cell count (%) Mean: 110.7%
SK-MEL-28; 3.16E-01 microM
  Relative cell count (%) Mean: 66.4%
SK-MEL-28; 3.17E-02 microM
  Relative cell count (%) Mean: 71.0%
SK-MEL-28; 3.17E-03 microM
  Relative cell count (%) Mean: 85.4%
SK-MEL-28; 3.18E-04 microM
  Relative cell count (%) Mean: 94.6%
SK-MEL-28; 3.18E-05 microM
  Relative cell count (%) Mean: 102.8%
SK-MEL-28; Homo sapiens, Skin, Melanoma, summary Table 5, read-out: EC50
  EC50: 4.8 nM
SK-MEL-28; [1]
  EC50: 4.71 nM
SK-MEL-28; [2]
  GI50: 38.2 nM
SK-MEL-28; [3]
  IC50: > 1000 nM
MES-SA
  Cell Count Activity Area: 4.81
MES-SA; 1.00E+00 microM
  Relative cell count (%) Mean: 26.6%
MES-SA; 1.00E-01 microM
  Relative cell count (%) Mean: 31.4%
MES-SA; 1.00E-02 microM
  Relative cell count (%) Mean: 43.5%
MES-SA; 1.00E-03 microM
  Relative cell count (%) Mean: 71.1%
MES-SA; 1.01E-04 microM
  Relative cell count (%) Mean: 107.7%
MES-SA; 3.16E-01 microM
  Relative cell count (%) Mean: 26.5%
MES-SA; 3.17E-02 microM
  Relative cell count (%) Mean: 35.6%
MES-SA; 3.17E-03 microM
  Relative cell count (%) Mean: 53.2%
MES-SA; 3.18E-04 microM
  Relative cell count (%) Mean: 90.9%
MES-SA; 3.18E-05 microM
  Relative cell count (%) Mean: 105.0%
MES-SA; [1]
  EC50: 1.17 nM
MES-SA; [2]
  GI50: 1.96 nM
MES-SA; [3]
  IC50: 2.74 nM
RL95-2
  Cell Count Activity Area: 3.36
RL95-2; 1.00E+00 microM
  Relative cell count (%) Mean: 48.1%
RL95-2; 1.00E-01 microM
  Relative cell count (%) Mean: 51.9%
RL95-2; 1.00E-02 microM
  Relative cell count (%) Mean: 61.8%
RL95-2; 1.00E-03 microM
  Relative cell count (%) Mean: 69.2%
RL95-2; 1.01E-04 microM
  Relative cell count (%) Mean: 91.3%
RL95-2; 3.16E-01 microM
  Relative cell count (%) Mean: 51.5%
RL95-2; 3.17E-02 microM
  Relative cell count (%) Mean: 53.8%
RL95-2; 3.17E-03 microM
  Relative cell count (%) Mean: 62.6%
RL95-2; 3.18E-04 microM
  Relative cell count (%) Mean: 78.8%
RL95-2; 3.18E-05 microM
  Relative cell count (%) Mean: 95.1%
RL95-2; [1]
  EC50: 0.645 nM
RL95-2; [2]
  GI50: 1.18 nM
RL95-2; [3]
  IC50: > 1000 nM
